Here are results for 19 compounds from article PMC10620162, “Structure—yeast α-glucosidase inhibitory activity relationship of 9-O-berberrubine carboxylates” (Scientific Reports, 2023).

Each structure is given as a SMILES string. Where two headings read alike, the source gives them in different places.

By inhibition is commonly meant the share of the control response that was lost under treatment. As usually defined, the IC50 is the midpoint of a concentration-inhibition curve. For orientation: CC50 means the concentration giving 50% cytotoxicity. As a reminder, the Ki is the dissociation constant of the complex between target and ligand, obtained from inhibition or displacement.

Data set [1] deals with T1, yeast α-glucosidase (Saccharomyces cerevisiae, UniProt P53341).
T1 construct: purchased Sigma Aldrich
T1 sequence (P53341 whole entry): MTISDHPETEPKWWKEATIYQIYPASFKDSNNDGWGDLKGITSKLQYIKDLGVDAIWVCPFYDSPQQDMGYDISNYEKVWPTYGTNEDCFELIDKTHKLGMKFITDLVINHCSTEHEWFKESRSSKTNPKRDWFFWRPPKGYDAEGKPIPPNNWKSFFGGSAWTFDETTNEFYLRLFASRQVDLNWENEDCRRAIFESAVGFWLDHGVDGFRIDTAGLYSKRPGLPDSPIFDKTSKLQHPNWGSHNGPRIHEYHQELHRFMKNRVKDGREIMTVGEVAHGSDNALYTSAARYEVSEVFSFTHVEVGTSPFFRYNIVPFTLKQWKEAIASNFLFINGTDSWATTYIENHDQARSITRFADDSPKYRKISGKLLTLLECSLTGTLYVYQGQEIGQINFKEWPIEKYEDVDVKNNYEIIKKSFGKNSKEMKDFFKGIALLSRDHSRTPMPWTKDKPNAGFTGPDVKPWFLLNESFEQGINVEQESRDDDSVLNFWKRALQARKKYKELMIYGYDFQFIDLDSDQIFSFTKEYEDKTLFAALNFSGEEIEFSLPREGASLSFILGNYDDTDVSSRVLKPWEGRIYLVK
As to the kind of experiment: biochemical. To be noted: for inhibition at 50 µM: read-out: Inhibition at 50 μM (%), 50 μM. How it is done:
Berberrubine derivatives will be assayed for yeast α-glucosidase inhibitory activity. The protocol described by Ramadhan et al. will be used[37]. Briefly, yeast α-glucosidase (0.1 U/mL) and substrate (1 mM p-nitrophenyl-α-D-glucopyranoside) were dissolved in 0.1 M phosphate buffer (pH 6.9). A 10 μL test sample was pre-incubated with α-glucosidase (40 μL) at 37 °C for 10 min. A substrate solution (50 μL) was then added to the reaction mixture and incubated at 37 °C for an additional 20 min, and terminated by adding 1 M Na2CO3 solution (100 μL). […] The percentage inhibition of activity was calculated as follows: % Inhibition = [(A0 − A1)/A0] × 100, where: A0 is the absorbance without the sample; A1 is the absorbance with the sample. The IC50 value was deduced from the plot of % inhibition versus the concentration of the test sample.

In the next data set the test system is HepG2 cells. Also on record: method as in PMID 27561717. To be noted: cited from earlier work; for glucose consumption (GC): HepG2 cells ref 29.
On the set-up of data set [2]: method as in doi:10.2217/clp.09.41, PMID 16956957. To be noted: cited from earlier work.
On the set-up of data set [3]: method as in PMID 27020531. The note with it: at 20 °C ref 19; cited from earlier work.
Data set [4] concerns the target T1, yeast α-glucosidase. As to the kind of experiment: kinetic study of α-glucosidase inhibition (Lineweaver–Burk plots). The note with it: for inhibition type: Lineweaver–Burk plot analysis. Format: biochemical. How it is done:
To further investigate how these 9-O-berberrubine carboxylates interact with yeast α-glucosidase, the inhibition types of four potential compounds, 9, 26, 28 and 33 were studied by using Lineweaver–Burk plot analysis.
The mode of inhibition of α-glucosidase was determined from Lineweaver–Burk plots. The inhibition type was determined using various concentrations of p-NPG substrate in the absence or presence of compounds at different concentrations. The Ki value was determined from secondary plots of slope versus [I].

Data set [5] can be described thus: cytotoxicity study with HEK-293 cells (CellTiter 96 AQueous One). Format: cell-based. The note with it: human. How it is done:
HEK-293 cells (ATCC® CRL-1573™) were maintained in growth medium consisting of DMEM (Gibco®, Langley, OK) supplemented with 10% fetal bovine serum (Gibco®, Langley, OK), 100 I.U./ml penicillin (Bio Basic Canada®, Ontario, CA), 100 μg/ml streptomycin (Bio Basic Canada®, Ontario, CA), and 10 mM HEPES (4-(2-hydroxyethyl)-1-piperazineethanesulfonic acid) (Sigma Aldrich®, St. Louis, MO) at 37 °C under 5% CO2.
The cytotoxicity of the active compounds (9, 26, 28 and 33) was tested with HEK-293 cells. The cells were seeded at 1 × 10^4 cells per well into 96-well plates in growth medium and incubated overnight. The compounds were prepared at the indicated concentrations in dimethylsulfoxide (DMSO) and added to the cells. Cells were incubated for 48 h before analyzing the cell viability using CellTiter 96® AQueous One Solution Cell Proliferation Assay kit (Promega, USA) according to manufacturer’s protocol. The plate was read at the A490 by VICTORTM X3 microplate reader (PerkinElmer, USA). The 1%DMSO treated cells as a positive control (100% viability). The CC50 values were calculated from nonlinear regression analysis. Results were reported as means and standard error mean (SEM) from three biological independent experiments.

The target of data set [6] is yeast α-glucosidase. Also on record: method as in PMID 26917220. To be noted: cited from earlier work.

As to `COc1ccc2cc3[n+](cc2c1OC)CCc1cc2c(cc1-3)OCO2` [BBR, Berberine, reference compound], the inhibition at 50 µM on yeast α-glucosidase [1] was below 0%. In addition, in the data set on HepG2 cells, the “glucose consumption (GC)” value is 5.04 mM. Moreover, the bioavailability result in data set [2] is reported as “less than 5%”. The aqueous solubility in data set [3] is ~ 1.8 mg/mL.

For `COc1ccc2cc3[n+](cc2c1OC(=O)c1ccccc1OCc1ccccc1)CCc1cc2c(cc1-3)OCO2.[Cl-]` [Compound 9, 9-((2-(benzyloxy)benzoyl)oxy)-10-methoxy-5,6-dihydro-[1,3]dioxolo[4,5-g]isoquinolino[3,2-a]isoquinolin-7-ium chloride], the concentration for half-maximal inhibition (IC50) on yeast α-glucosidase [1] (read-out: IC50) amounted to 2.29 ± 0.08 µM. The inhibition at 50 µM on yeast α-glucosidase [1] was determined as 100%. Besides, the inhibition type entry at yeast α-glucosidase [4] is listed as “competitive”. The compound further returned a CC50 at 48 h in data set [5] of 30.5 µM.

Regarding `COc1ccc2cc3[n+](cc2c1OC(=O)c1c(Cl)cccc1Cl)CCc1cc2c(cc1-3)OCO2` [Compound 21, 9-((2,6-dichlorobenzoyl)oxy)-10-methoxy-5,6-dihydro-[1,3]dioxolo[4,5-g]isoquinolino[3,2-a]isoquinolin-7-ium chloride], at yeast α-glucosidase [1], half-maximal inhibition (IC50) was put at 5.86 ± 0.35 µM and the inhibition at 50 µM came out at 96.6%.

With `COc1ccc2cc3[n+](cc2c1OC(=O)c1ccccc1C)CCc1cc2c(cc1-3)OCO2` [Compound 22, 10-methoxy-9-((2-methylbenzoyl)oxy)-5,6-dihydro-[1,3]dioxolo[4,5-g]isoquinolino[3,2-a]isoquinolin-7-ium chloride], on yeast α-glucosidase [1], the midpoint of inhibition, the IC50, lay at 18.1 ± 0.68 µM and the inhibition at 50 µM worked out at 90.6%.

Take `COc1ccc2cc3[n+](cc2c1OC(=O)c1ccc(C)cc1)CCc1cc2c(cc1-3)OCO2` [Compound 23, 10-methoxy-9-((4-methylbenzoyl)oxy)-5,6-dihydro-[1,3]dioxolo[4,5-g]isoquinolino[3,2-a]isoquinolin-7-ium chloride]: at yeast α-glucosidase [1], the IC50 is 17.5 ± 1.11 µM and the inhibition at 50 µM worked out at 78.9%.

With `CCc1ccc(C(=O)Oc2c(OC)ccc3cc4[n+](cc23)CCc2cc3c(cc2-4)OCO3)cc1` [Compound 24, 9-((4-ethylbenzoyl)oxy)-10-methoxy-5,6-dihydro-[1,3]dioxolo[4,5-g]isoquinolino[3,2-a]isoquinolin-7-ium chloride], on yeast α-glucosidase [1], the IC50 was 12.5 ± 0.99 µM and the inhibition at 50 µM was 81%.

For `COc1ccc2cc3[n+](cc2c1OC(=O)c1ccc(C(C)(C)C)cc1)CCc1cc2c(cc1-3)OCO2` [Compound 25, 9-((4-(tert-butyl)benzoyl)oxy)-10-methoxy-5,6-dihydro-[1,3]dioxolo[4,5-g]isoquinolino[3,2-a]isoquinolin-7-ium chloride], on yeast α-glucosidase [1], the IC50 is 3.53 ± 0.31 µM and the inhibition at 50 µM came to 98.9%.

As for `COc1ccc2cc3[n+](cc2c1OC(=O)c1cc(C(C)(C)C)cc(C(C)(C)C)c1)CCc1cc2c(cc1-3)OCO2.[Cl-]` [Compound 26, 9-((3,5-di-tert-butylbenzoyl)oxy)-10-methoxy-5,6-dihydro-[1,3]dioxolo[4,5-g]isoquinolino[3,2-a]isoquinolin-7-ium chloride], on yeast α-glucosidase [1], half-maximal inhibition (IC50) was put at 1.61 ± 0.08 µM and the inhibition at 50 µM worked out at 99.8%. Moreover, at yeast α-glucosidase [4], the Ki stood at 10.7 µM and the inhibition type entry is listed as “competitive”. In addition, the CC50 at 48 h in data set [5] was found to be 18.2 µM.

In the case of `COc1ccc2cc3[n+](cc2c1OC(=O)c1cccc2ccccc12)CCc1cc2c(cc1-3)OCO2` [Compound 27, 9-((1-naphthoyl)oxy)-10-methoxy-5,6-dihydro-[1,3]dioxolo[4,5-g]isoquinolino[3,2-a]isoquinolin-7-ium chloride], at yeast α-glucosidase [1] (read-out: IC50), the IC50 came out at 2.67 ± 0.27 µM. In addition, on yeast α-glucosidase [1], the inhibition at 50 µM was determined as 99.8%.

For the compound `COc1ccc2cc3[n+](cc2c1OC(=O)c1ccc2ccccc2c1)CCc1cc2c(cc1-3)OCO2.[Cl-]` [Compound 28, 9-((2-naphthoyl)oxy)-10-methoxy-5,6-dihydro-[1,3]dioxolo[4,5-g]isoquinolino[3,2-a]isoquinolin-7-ium chloride], the IC50 at yeast α-glucosidase [1] (read-out: IC50) was found to be 2.63 ± 0.23 µM. At yeast α-glucosidase [1], the inhibition at 50 µM is 95.7%. For the same compound, the inhibition type result at yeast α-glucosidase [4] was “competitive”. Also, the Ki at yeast α-glucosidase [4] (secondary plots of slope versus [I], read-out: inhibition constants (Ki)) came out at 25.3 µM. Besides, the midpoint of cytotoxicity in data set [5], the CC50 at 48 h, lay at 20.9 µM.

With `COc1ccc2cc3[n+](cc2c1OC(=O)C=Cc1ccccc1)CCc1cc2c(cc1-3)OCO2.[Cl-]` [Compound 29, 9-(cinnamoyloxy)-10-methoxy-5,6-dihydro-[1,3]dioxolo[4,5-g]isoquinolino[3,2-a]isoquinolin-7-ium chloride], on yeast α-glucosidase [1], the IC50 worked out at 15.1 ± 0.6 µM and the inhibition at 50 µM was determined as 88.5%. For the same compound, the “glucose consumption (GC)” value in the data set on HepG2 cells was 6.73 mM. For the same compound, the cytotoxicity result with HepG2 cells (compared with berberine ref 29) is recorded as “lower than berberine”.

Consider `COc1ccc2cc3[n+](cc2c1OC(=O)/C(C)=C/c1ccccc1)CCc1cc2c(cc1-3)OCO2` [Compound 30, (E)-10-methoxy-9-((2-methyl-3-phenylacryloyl)oxy)-5,6-dihydro-[1,3]dioxolo[4,5-g]isoquinolino[3,2-a]isoquinolin-7-ium chloride], for which, on yeast α-glucosidase [1], half-maximal inhibition (IC50) required 10.3 ± 0.84 µM and the inhibition at 50 µM was 91.9%.

As for `COc1ccc2cc3[n+](cc2c1OC(=O)/C=C/c1ccc2c(c1)OCO2)CCc1cc2c(cc1-3)OCO2` [Compound 31, (E)-9-((3-(benzo[d][1,3]dioxol-5-yl)acryloyl)oxy)-10-methoxy-5,6-dihydro-[1,3]dioxolo[4,5-g]isoquinolino[3,2-a]isoquinolin-7-ium chloride], at yeast α-glucosidase [1] (read-out: IC50), the IC50 is 4.64 ± 0.55 µM. For the same compound, on yeast α-glucosidase [1], the inhibition at 50 µM was 98.9%.

In the case of `COc1ccc2cc3[n+](cc2c1OC(=O)/C=C/c1c(Cl)cccc1Cl)CCc1cc2c(cc1-3)OCO2` [Compound 32, (E)-9-((3-(2,6-dichlorophenyl)acryloyl)oxy)-10-methoxy-5,6-dihydro-[1,3]dioxolo[4,5-g]isoquinolino[3,2-a]isoquinolin-7-ium chloride], at yeast α-glucosidase [1], half-maximal inhibition (IC50) required 16 ± 0.67 µM and the inhibition at 50 µM came to 94.8%.

As for `COc1ccc2cc3[n+](cc2c1OC(=O)/C=C/C=C/c1ccc2c(c1)OCO2)CCc1cc2c(cc1-3)OCO2.[Cl-]` [Compound 33, 9-(((2E,4E)-5-(benzo[d][1,3]dioxol-5-yl)penta-2,4-dienoyl)oxy)-10-methoxy-5,6-dihydro-[1,3]dioxolo[4,5-g]isoquinolino[3,2-a]isoquinolin-7-ium chloride], the IC50 on yeast α-glucosidase [1] (read-out: IC50) is 1.95 ± 0.06 µM. Moreover, the inhibition at 50 µM at yeast α-glucosidase [1] came to 98.7%. Moreover, the inhibition type entry against yeast α-glucosidase [4] is on record as “competitive”. Besides, in data set [5], it took 17.7 µM to reach half-maximal cytotoxicity (CC50 at 48 h).

As for `COc1ccc2cc3[n+](cc2c1OC(=O)Cc1c(Cl)cccc1Cl)CCc1cc2c(cc1-3)OCO2` [Compound 34, 9-(2-(2,6-dichlorophenyl)acetoxy)-10-methoxy-5,6-dihydro-[1,3]dioxolo[4,5-g]isoquinolino[3,2-a]isoquinolin-7-ium chloride], the IC50 on yeast α-glucosidase [1] (read-out: IC50) worked out at 7.3 ± 0.51 µM. Besides, the inhibition at 50 µM at yeast α-glucosidase [1] is 93.9%.

As to `COc1ccc2cc3[n+](cc2c1OC(=O)C(c1ccccc1)c1ccccc1)CCc1cc2c(cc1-3)OCO2` [Compound 35, 9-(2,2-diphenylacetoxy)-10-methoxy-5,6-dihydro-[1,3]dioxolo[4,5-g]isoquinolino[3,2-a]isoquinolin-7-ium chloride], the IC50 on yeast α-glucosidase [1] (read-out: IC50) worked out at 6.19 ± 0.32 µM. In addition, the inhibition at 50 µM on yeast α-glucosidase [1] amounted to 95.2%.

With `O=c1c2ccccc2oc2cc(O)cc(O)c12` [Compound X1, 1,3-dihydroxyxanthone], the IC50 at yeast α-glucosidase [6] was 145 µM.

`CC(C)(C)[Si](C)(C)Oc1ccc(C(=O)Oc2cc(O)c3c(=O)c4ccccc4oc3c2)cc1` [Compound X2, 3-Arylacyloxyxanthone]: the IC50 on yeast α-glucosidase [6] is 10.6 µM.
